# Values quoted from earlier work as cited in US20260115111A1, “METHOD FOR IMPROVING THE TACTILE SENSATION OF DYED KERATINOUS MATERIAL, ESPECIALLY HUMAN HAIR” (Henkel AG & Co. KGaA, priority 2019, published 2026).
# Settings: 25° C.
row,SMILES,solubility in water
1,"O=S(=O)([O-])c1ccc(N=Nc2c(O)ccc3ccccc23)cc1.[Na+] [Acid Orange 7, sodium salt of 4-[(2-hydroxy-1-naphthyl)azo]benzene sulphonate]",more than 7 g/L
2,"O=C([O-])c1c(Cl)c(Cl)c(Cl)c(Cl)c1-c1c2c(Br)cc(=O)c(Br)c-2oc2c(Br)c(O)cc(Br)c12.O=C([O-])c1c(Cl)c(Cl)c(Cl)c(Cl)c1-c1c2c(Br)cc(=O)c(Br)c-2oc2c(Br)c(O)cc(Br)c12.[Na+].[Na+] [Acid Red 92, disodium salt of 3,4,5,6-tetrachloro-2-(1,4,5,8-tetrabromo-6-hydroxy-3-oxoxanthen-9-yl)benzoic acid]",greater than 10 g/L

# The next lines start with the values.
row,solubility in water,SMILES
1,2500 µg/mL,"Nc1cc(S(=O)(=O)[O-])cc2cc(S(=O)(=O)[O-])c(N=Nc3ccccc3)c(O)c12.[Na+].[Na+] [Acid Red 33, diantrium salt of 5-amino-4-hydroxy-3-(phenylazo)-naphthalene-2,7-disulphonate]"
2,more than 20 wt. %,CCN(Cc1cccc(S(=O)(=O)[O-])c1)c1ccc(C(=C2C=CC(=[N+](CC)Cc3cccc(S(=O)(=O)[O-])c3)C=C2)c2ccccc2S(=O)(=O)[O-])cc1.[Na+].[Na+] [Acid Blue 9]
3,highly soluble,"O=C([O-])C1=NN(c2ccc(S(=O)(=O)[O-])cc2)C(=O)C1N=Nc1ccc(S(=O)(=O)[O-])cc1.[Na+].[Na+].[Na+] (centres unmarked) [Acid Yellow 23, trisodium salt of 4,5-dihydro-5-oxo-1-(4-sulfophenyl)-4-((4-sulfophenyl)azo)-1H-pyrazole-3-carboxylic acid]"
